Entries after “also recorded” stand apart in the source; their conditions may differ.
How the values were obtained:
[1] = biological target: T1, CYP2C9 (Homo sapiens, UniProt P11712); test: CYP inhibition: CYP2C9; assay type: in vitro ADME; conditions: human hepatic microsomes or recombinant isoenzymes
T1 construct: host or cells: human hepatic microsomes or recombinant isoenzyme (not distinguished)
Description: (§1) It is possible that in certain clinical trial subjects, such agents may need to be adjusted for dosing or replaced by alternative agents that are not metabolized by CYP2D6, particularly when such agents may have a low therapeutic index.

[2] = system: IL-6; test: Patients: serum and plasma IL-6 levels; assay type: in vivo, human
Protocol: Subjects with NF2 may receive continuous daily treatment with a Compound administered at 100 mg per dose, 2 times a day (BID) for up to 1 year, or longer as appropriate, or until tumor progression. […] Tumor shrinkage or an improvement in hearing are indicators of efficacy.
Anti-angiogenic activity: Assessing VEGF concentrations provides a relevant and convenient mechanism-specific marker of Compound activity. […] For example, clinically validated ELISA kits (e.g., from R&D Systems, Minneapolis, Minn.) may be used to measure concentrations of VEGF, VEGF-C, P1GF, VEGFR, and inflammatory mediators such as IL-6 and IL-8. CT scan and MRI scan may also be used to assess peritumoral inflammation or edema.
Blood for VEGF, VEGFR, and Cytokines. Two blood samples (1 for plasma and 1 for serum) may be obtained for assessment of VEGF, VEGFR, and cytokine levels.
After processing, samples may be placed into a freezer at approximately −70° C. An ELISA-based multiplex system may be used to measure plasma VEGF and cytokine levels.

[3] = system: physiological VEGF-A; test: Phase 1 multiple-dose study: plasma and serum physiological VEGF-A concentrations; assay type: in vivo, human; conditions: healthy volunteers, all doses tested
Description: Plasma VEGF Concentrations: Plasma and serum VEGF concentrations and concentration changes from baseline were presented descriptively.

[4] = system: soluble VEGF121 and VEGF165 isoforms; test: Inhibition of soluble VEGF production in human tumor cell lines (ELISA, EC50); assay type: cell-based
Protocol: Study Design. […] In these experiments, cultures were established under normoxic conditions (21% oxygen). […] Cells requiring induction of VEGF production were incubated under hypoxic conditions (1% oxygen). At the completion of treatment, the conditioned media were collected and assayed by ELISA (as described in Section 9.1.1.1) for soluble VEGF121 and VEGF165 isoforms; results were calculated as percentage inhibition relative to vehicle treated controls. EC50 values were calculated from the dose concentration response curves.

[5] = system: HT1080 cells; test: Kinetics of S-phase transit by BrdU incorporation in HT1080 cells; assay type: cell-based, human
Protocol: Experimental Design. HT 1080 cells are exposed to BrdU (bromodeoxyuridine, a synthetic nucleoside that is an analogue of thymidine and is incorporated into DNA during the S phase of cell division) (FITC BrdU Flow Kit, BD Pharmingen catalog #552598). Cells are grown and treated as described in Section 9.3.1.3 above with the exception that one hour prior to harvesting by trypsinization, BrdU (final concentration 1 μM) is added to each culture for 1 hour. Cells actively replicating DNA during this brief time incorporate the BrdU into the DNA, which can then be quantitated. BrdU content is quantitated with using the FITC BrdU Flow Kit as instructed by the manufacturer. The process includes fixation (paraformaldehyde) and DNA staining with 7-AAD (7-amino-actinomycin D) followed by incubation with a fluoro-tagged anti-BrdU antibody that specifically recognizes BrdU incorporated into DNA. Dual channel FACS analysis permits assessment of both the DNA content of individual cells and the rate of transit across the S-phase, which is assessed based upon BrdU incorporation over the one hour treatment period.

[6] = system: SKNEP orthotopic xenografts; test: Orthotopic SKNEP Ewing sarcoma tumor model (kidney capsule): tumor weight; assay type: in vivo, athymic nude mice; conditions: 5 weeks of treatment
Description: Experimental Design. In orthotopic tumor models, human tumor cells are implanted into the mouse in an organ that corresponds to the location from which the tumors arise. Such models may provide a better predictor of clinical efficacy than injection of tumors into the flanks of nude mice. See Hoffman, Invest. New Drugs 1999, 17(4):343-59. SY5Y neuroblastoma or SKNEP Ewing sarcoma tumor cells (1×10^6 cells/mouse) were implanted into the kidney capsule of female athymic nude mice according to published methods. See Huang et al., Proc. Natl. Acad. Sci. USA 2003, 100(13):7785-90. One week after implantation of each type of tumor, mice were divided into 2 groups and were administered a test Compound as shown in Table 21.
After 5 weeks of treatment, the mice were sacrificed, and the weights of the tumors were assessed.

[7] = Functional observation battery, 7 days oral gavage; assay type: in vivo, Sprague Dawley rats; conditions: 40, 120, and 400 mg/kg daily for 7-days
[8] = system: VEGF189 and VEGF206 isoforms; test: In-Cell Western / Western blot of matrix associated VEGF189/206 production in HT1080 cells; assay type: cell-based, human; conditions: HT1080, normoxic, 48 hours
Protocol: Experimental Design. HT1080 (human fibrosacoma) cell cultures were established under normoxic conditions (21% oxygen). HT1080 cells constitutively overproduce VEGF even under normoxic conditions. […] At the completion of treatment, the cells were washed and harvested. Cells were incubated with a primary antibody that recognizes the VEGF189 and VEGF206 isoforms. Infrared-dye labeled antibodies were applied secondarily, and the amounts of VEGF189 and VEGF206 were determined using the IN-CELL WESTERN® assay and ODYSSEY® infrared imaging system (Li-Cor, Lincoln, Nebr., USA); results are expressed as percentage inhibition relative to vehicle treated controls. Conventional Western blotting using the same primary antibody was also performed to confirm the presence of the matrix associated isoforms; for these experiments actin was used as a loading control. Actin is a ubiquitous housekeeping protein that is not known to be post transcriptionally regulated.

[9] = biological target: T2, CYP2D6 (Homo sapiens, UniProt P10635); test: CYP inhibition in human hepatic microsomes / recombinant isoenzymes: CYP2D6; assay type: in vitro ADME; conditions: human hepatic microsomes or recombinant isoenzymes
T2 construct: host or cells: human hepatic microsomes or recombinant isoenzyme (not distinguished)
Description: as §1

T2 sequence (P10635 whole entry): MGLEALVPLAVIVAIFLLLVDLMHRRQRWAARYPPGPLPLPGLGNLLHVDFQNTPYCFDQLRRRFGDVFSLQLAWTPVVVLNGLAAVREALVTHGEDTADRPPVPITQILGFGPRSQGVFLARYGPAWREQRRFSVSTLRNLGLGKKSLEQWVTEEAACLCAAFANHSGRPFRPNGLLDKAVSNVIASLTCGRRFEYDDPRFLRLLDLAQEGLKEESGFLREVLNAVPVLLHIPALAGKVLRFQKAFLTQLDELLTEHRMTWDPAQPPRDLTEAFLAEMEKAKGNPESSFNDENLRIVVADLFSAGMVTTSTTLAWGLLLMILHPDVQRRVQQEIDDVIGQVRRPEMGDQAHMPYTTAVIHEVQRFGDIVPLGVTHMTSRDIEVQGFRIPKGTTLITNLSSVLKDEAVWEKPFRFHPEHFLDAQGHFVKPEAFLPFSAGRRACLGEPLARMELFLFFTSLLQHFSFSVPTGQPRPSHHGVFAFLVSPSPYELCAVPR
T1 sequence (P11712 whole entry): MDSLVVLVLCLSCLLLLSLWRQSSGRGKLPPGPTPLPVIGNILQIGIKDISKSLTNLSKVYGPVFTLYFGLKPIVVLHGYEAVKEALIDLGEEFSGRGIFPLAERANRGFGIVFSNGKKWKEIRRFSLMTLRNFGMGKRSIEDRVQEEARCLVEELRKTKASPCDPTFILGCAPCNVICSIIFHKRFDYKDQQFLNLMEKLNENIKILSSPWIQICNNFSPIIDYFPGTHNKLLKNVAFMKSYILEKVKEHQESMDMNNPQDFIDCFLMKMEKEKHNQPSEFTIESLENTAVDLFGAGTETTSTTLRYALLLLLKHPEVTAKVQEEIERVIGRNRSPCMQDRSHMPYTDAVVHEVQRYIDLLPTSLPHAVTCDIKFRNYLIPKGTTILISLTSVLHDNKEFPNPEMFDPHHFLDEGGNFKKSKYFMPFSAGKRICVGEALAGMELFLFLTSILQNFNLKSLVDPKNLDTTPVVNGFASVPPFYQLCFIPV

SMILES: COc1ccc(C2c3[nH]c4ccc(Cl)cc4c3CCN2C(=O)Oc2ccc(Cl)cc2)cc1 (racemic) [Compound #10]
- Inhibition of CYP2C9 [1]: No meaningful inhibition
- Plasma IL-6 levels in patients (FIG. 38) [2]: reduced
- Effect on plasma or serum physiological VEGF-A concentrations [3]: no clear dose dependent effects; also recorded: No significant alterations
- EC50 ([4]; A-375, Melanoma, A375, hypoxic (1% oxygen), 48 hours): 50 nM
- EC50 ([4]; A-431, Epidermoid, A431, 48 hours): 10 nM
- EC50 ([4]; Breast, MDA-MB-468, hypoxic (1% oxygen), 48 hours): 5 nM
- EC50 ([4]; Cervical, HeLa, hypoxic (1% oxygen), 48 hours): 2 nM
- EC50 ([4]; Colorectal, HCT-116, 48 hours): 10 nM
- EC50 ([4]; Gastric, AGS, 48 hours): 0.1 nM
- EC50 ([4]; Gastric, Kato III, hypoxic (1% oxygen), 48 hours): 10 nM
- EC50 ([4]; HT-1080, Fibrosarcoma, HT1080, 48 hours): 10 nM
- EC50 ([4]; Lung, A549, 48 hours): 50 nM
- EC50 ([4]; Lung, Calu-6, hypoxic (1% oxygen), 48 hours): 7 nM
- EC50 ([4]; Lung, NCI H460, 48 hours): 10 nM
- EC50 ([4]; MDA-MB-231, 48 h): 5 nM
- EC50 ([4]; Neuroblastoma, SY5Y, hypoxic (1% oxygen), 48 hours): 5 nM
- EC50 ([4]; Pancreas, Capan-1, hypoxic (1% oxygen), 48 hours): 5 nM
- EC50 ([4]; Prostate, LNCaP, hypoxic (1% oxygen), 48 hours): 15 nM
- EC50 ([4]; Renal cell, HEK293, 48 hours): 10 nM
- EC50 ([4]; SK-OV-3, Ovarian, SKOV3, hypoxic (1% oxygen), 48 hours): 10 nM
- EC50 ([4]; SNU1, Gastric, SNU-1, 48 hours): 0.1 nM
- Percentage of cells residing in S-phase ([5]; HT1080, 18-hour treatment, increasing doses): net increase
- BrdU incorporation of individual cells vs DMSO control ([5]; HT1080, one-hour BrdU pulse after 18-hour treatment): incorporated less BrdU
- Growth of orthotopic SKNEP tumors (tumor weight) [6]: completely prevented growth
- Behavioral or neurological effects [7]: no adverse behavioral or neurological effects
- Inhibition of VEGF189 and VEGF206 isoforms [8]: potent concentration-dependent inhibition
- Inhibition of CYP2D6 isoenzyme activity [9]: inhibits the activity
